Each compound was assayed against T1, human PAD4 (Homo sapiens, UniProt Q9UM07) (assay: In vitro PAD4 BAEE biochemical assay). Details: BAEE substrate 3 mM, 5 nM PAD4, 2 mM calcium chloride; geometric mean of multiple experiments.
T1 construct: human PAD4 (NM_012387), A2-P663, was PCR amplified; His-SUMO (N, cleaved yes); made in house; host or cells: E. coli BL21(DE3)
T1 sequence (Q9UM07 2-663): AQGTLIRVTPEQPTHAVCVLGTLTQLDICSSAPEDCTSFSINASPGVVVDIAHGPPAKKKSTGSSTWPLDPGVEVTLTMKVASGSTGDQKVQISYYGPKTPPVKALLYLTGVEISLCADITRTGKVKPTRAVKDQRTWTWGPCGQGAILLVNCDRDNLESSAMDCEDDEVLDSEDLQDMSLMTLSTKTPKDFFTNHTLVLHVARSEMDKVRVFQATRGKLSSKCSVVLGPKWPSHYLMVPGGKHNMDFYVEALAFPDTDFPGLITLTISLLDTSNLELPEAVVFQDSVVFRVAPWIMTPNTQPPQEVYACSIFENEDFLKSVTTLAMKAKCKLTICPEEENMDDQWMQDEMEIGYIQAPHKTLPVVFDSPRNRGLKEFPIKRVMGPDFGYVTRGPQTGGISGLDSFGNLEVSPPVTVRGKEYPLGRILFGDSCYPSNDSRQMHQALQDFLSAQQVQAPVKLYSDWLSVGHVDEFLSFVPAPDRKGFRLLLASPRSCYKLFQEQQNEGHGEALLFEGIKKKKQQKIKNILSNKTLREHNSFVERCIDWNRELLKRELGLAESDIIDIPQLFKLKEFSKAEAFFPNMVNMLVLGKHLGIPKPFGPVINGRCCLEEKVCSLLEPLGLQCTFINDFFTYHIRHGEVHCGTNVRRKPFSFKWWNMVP
In short: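 Assay was run at 25 °C using 3 mM BAEE and 5 nM human PAD4 after a 30 min compound preincubation; ammonia produced over 2 h was quantified by OPA-derived fluorescence. Full inhibition was defined by 50 µM BB-Cl-Amidine, and IC50 came from variable-slope nonlinear regression.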
For `COc1cc(C(=O)N2[C@H]3CC[C@@H]2[C@H](N)C3)cc2nc(-c3cc4ccc5cc4n3CCCC3CCN(CC3)C(=O)c3ccccc3-5)n(C)c12` [Example 101, 17-[5-[(1~{R},2~{R},4~{S})-2-amino-7-azabicyclo[2.2.1]heptane-7-carbonyl]-7-methoxy-1-methyl-benzimidazol-2-yl]-9,16-diazapentacyclo[14.5.2.2^{9,12}.0^{2,7}.0^ {19,23}]pentacosa-1(22),2,4,6,17,19(23),20-heptaen-8-one], the IC50 was 7450 nM. `COc1cc(C(=O)N2[C@H]3CC[C@@H]2[C@H](N)C3)cc2nc(-c3cc4ccc5nc4n3CCCCCC(C)(C)C(=O)N[C@@H]5C)n(C)c12` [Example 102, (10~{R})-16-[5-[(1~{R},2~{R},4~{S})-2-amino-7-azabicyclo[2.2.1]heptane-7-carbonyl]-7-methoxy-1-methyl-benzimidazol-2-yl]-7,7,10-trimethyl-1,9,18-triazatricyclo[9.5.2.0^{14,17}]octadeca-11(18),12,14(17),15-tetraen-8-one] gave an IC50 of 45 nM. `CCCO[C@@H]1CCN(C(=O)c2cc(OC)c3c(c2)nc(-c2cc4ccc5nc4n2CCCCCCC(C)(C)C(=O)N[C@@H]5C)n3C)C[C@@H]1N` [Example 103, (11~{R})-17-[5-[(3~{S},4~{R})-3-amino-4-propoxy-piperidine-1-carbonyl]-7-methoxy-1-methyl-benzimidazol-2-yl]-8,8,11-trimethyl-1,10,19-triazatricyclo[10.5.2.0^{15,18}]nonadeca-12(19),13,15(18),16-tetraen-9-one] gave an IC50 of 166 nM. In the case of `CCO[C@@H]1CCN(C(=O)c2cc(OC)c3c(c2)nc(-c2cc4ccc5nc4n2CCCCCCC(C)(C)C(=O)N[C@@H]5C)n3C)C[C@@H]1N` [Example 104, (11~{R})-17-[5-[(3~{S},4~{R})-3-amino-4-ethoxy-piperidine-1-carbonyl]-7-methoxy-1-methyl-benzimidazol-2-yl]-8,8,11-trimethyl-1,10,19-triazatricyclo[10.5.2.0^{15,18}]nonadeca-12(19),13,15(18),16-tetraen-9-one], the IC50 is reported as 115 nM. For `CN[C@H]1CN(C(=O)c2cc(OC)c3c(c2)nc(-c2cc4ccc5nc4n2CCCCCCC(C)(C)C(=O)N[C@@H]5C)n3C)CC[C@H]1OC` [Example 105, (11~{R})-17-[7-methoxy-5-[(3~{S},4~{R})-4-methoxy-3-(methylamino)piperidine-1-carbonyl]-1-methyl-benzimidazol-2-yl]-8,8,11-trimethyl-1,10,19-triazatricyclo[10.5.2.0^{15,18}]nonadeca-12(19),13,15(18),16-tetraen-9-one], the IC50 was 27400 nM. `COc1cc(C(=O)N2CCC[C@@H](N)C2)cc2nc(-c3cc4ccc5nc4n3CCCCCC(C)(C)C(=O)N[C@@H]5C)c(C)n12` [Example 106, (10~{R})-16-[7-[(3~{R})-3-aminopiperidine-1-carbonyl]-5-methoxy-3-methyl-imidazo[1,2-a]pyridin-2-yl]-7,7,10-trimethyl-1,9,18-triazatricyclo[9.5.2.0^{14,17}]octadeca-11(18),12,14(17),15-tetraen-8-one] gave an IC50 of 201 nM. `COc1cc(C(=O)N2CCC[C@@H](N)C2)cc2nc(-c3cc4ccc5nc4n3CCCCCCCCC(=O)N3CCC[C@H]53)n(C)c12` [Example 107, (2~{R})-17-[5-[(3~{R})-3-aminopiperidine-1-carbonyl]-7-methoxy-1-methyl-benzimidazol-2-yl]-6,16,22-triazatetracyclo[14.5.2.0^{2,6}.0^{19,23}] tricosa-1(22),17,19(23),20-tetraen-7-one] was tested, and the IC50 was 24 nM. Compound `COc1cc(C(=O)N2CCC[C@@H](N)C2)cc2nc(-c3cc4ccc5nc4n3CCCCOCCC(=O)N3CCC[C@H]53)n(C)c12` [Example 108, (2~{R})-16-[5-[(3~{R})-3-aminopiperidine-1-carbonyl]-7-methoxy-1-methyl-benzimidazol-2-yl]-10-oxa-6,15,21-triazatetracyclo[13.5.2.0^{2,6}.0^{18,22}] docosa-1(21),16,18(22),19-tetraen-7-one] has an IC50 of 150 nM. `COc1cc(C(=O)N2CCC[C@@H](N)C2)cc2nc(-c3cc4ccc5nc4n3CCCCOCC(=O)N3CCC[C@H]53)n(C)c12` [Example 109, (2~{R})-15-[5-[(3~{R})-3-aminopiperidine-1-carbonyl]-7-methoxy-1-methyl-benzimidazol-2-yl]-9-oxa-6,14,20-triazatetracyclo[12.5.2.0^{2,6}.0^{17,21}] henicosa-1(20),15,17(21),18-tetraen-7-one] was tested, and the IC50 was 303 nM. For `COc1cc(C(=O)N2CCC[C@@H](N)C2)cc2nc(-c3cc4ccc5nc4n3CCCCCC[C@@H](C)C(=O)N[C@@H]5C)n(C)c12` [Example 110, (8~{R},11~{R})-17-[5-[(3~{R})-3-aminopiperidine-1-carbonyl]-7-methoxy-1-methyl-benzimidazol-2-yl]-8,11-dimethyl-1,10,19-triazatricyclo[10.5.2.0^{15,18}]nonadeca-12(19),13,15(18),16-tetraen-9-one], the IC50 was 70 nM. `COc1cc(C(=O)N2CCC[C@@H](N)C2)cc2nc(-c3cc4ccc5nc4n3CCCCCC[C@H](C)C(=O)N[C@@H]5C)n(C)c12` [Example 111, (8~{S},11~{R})-17-[5-[(3~{R})-3-aminopiperidine-1-carbonyl]-7-methoxy-1-methyl-benzimidazol-2-yl]-8,11-dimethyl-1,10,19-triazatricyclo[10.5.2.0^{15,18}]nonadeca-12(19),13,15(18),16-tetraen-9-one] gave an IC50 of 49 nM. In the case of `COc1cc(C(=O)N2CCC[C@@H](N)C2)cc2nc(-c3cc4ccc5nc4n3CCCCCC[C@@H]3CCN(C3=O)[C@@H]5C)n(C)c12` [Example 112, (2~{R},6~{R})-14-[5-[(3~{R})-3-aminopiperidine-1-carbonyl]-7-methoxy-1-methyl-benzimidazol-2-yl]-2-methyl-3,13,19-triazatetracyclo[11.5.2.1^{3,6}.0^{16,20}] henicosa-1(19),14,16(20),17-tetraen-21-one], the IC50 is reported as 81 nM. `COc1cc(C(=O)N2CCC[C@@H](N)C2)cc2nc(-c3cc4ccc5cc4n3CCCCCC[C@@H]3CCN(C3=O)[C@@H]5C)n(C)c12` [Example 113, (2~{R},6~{R})-14-[5-[(3~{R})-3-aminopiperidine-1-carbonyl]-7-methoxy-1-methyl-benzimidazol-2-yl]-2-methyl-3,13-diazatetracyclo[11.5.2.1^{3,6}.0^{16,20}] henicosa-1(19),14,16(20),17-tetraen-21-one] gave an IC50 of 302 nM. `COc1cc(C(=O)N2CCC[C@@H](N)C2)cc2nc(-c3cc4ccc5nc4n3CC3(CCCCCC(=O)N[C@@H]5C)CC3)n(C)c12` [Example 114, (11~{R})-17-[5-[(3~{R})-3-aminopiperidine-1-carbonyl]-7-methoxy-1-methyl-benzimidazol-2-yl]-11-methyl-spiro[1,10,19-triazatricyclo[10.5.2.0^{15,18}]nonadeca-12(19),13,15(18),16-tetraene-3,1′-cyclopropane]-9-one] showed an IC50 of 61 nM. Work on `C[C@H]1NC(=O)C(C)(C)CCCCCCn2c(-c3nc4cc(C(=O)N5CCC[C@@H](N)C5)ccc4n3C3CC3)cc3ccc1nc32` [Example 117, (11~{R})-17-[5-[(3~{R})-3-aminopiperidine-1-carbonyl]-1-cyclopropyl-benzimidazol-2-yl]-8,8,11-trimethyl-1,10,19-triazatricyclo[10.5.2.0^{15,18}]nonadeca-12(19),13,15(18),16-tetraen-9-one] yielded an IC50 of 54 nM.
